Measured values taken from patent publication US8575216B2, “Method of treatment for acute myelogenous leukemia” (priority 2009, dated 2013).
“And” between values parts separate entries of the source, which are not always exact repeats. Equal entries are not always repeated. “Also recorded” adds a separate entry of the source. Where two headings read alike, the source gives them in different places.

Assays:
[1] = CINJ TPA Phase 1 study, relapsed/refractory malignancies: clinical response and toxicity; type: in vivo, human
Source text: 12-O-tetradecanoylphorbol-13-acetate (TPA), an activator of protein kinase C, is being developed as a therapeutic agent for patients with acute myelogenous leukemia (AML) because of its profound effects on intracellular signaling pathways, it's capacity to induce differentiation and/or apoptosis in cell lines, and preliminary clinical data from China indicating effectiveness in myeloid malignancies (Han Z T, Zhu X X, Yang R Y, Sun J Z, Tian G F, Liu X J et al. Effect of intravenous infusions of 12-O-tetradecanoylphorbol-13-acetate (TPA) in patients with myelocytic leukemia: preliminary studies on therapeutic efficacy and toxicity. Proc Natl Acad Sci USA 1998; 95(9):5357-5361). A recently completed Investigator-initiated, Phase I study at The Cancer Institute of New Jersey/Robert Wood Johnson Medical School/UMDNJ represented the only FDA-approved study to administer TPA to patients in the United States and provided a unique opportunity to study the in vivo effects of TPA in patients with relapsed/refractory malignancies for which no standard therapies exist. Thus far clinical evaluation of TPA as a single agent has documented clinical safety when administered on days 1-5 and 8-12.
The initial CINJ TPA Phase 1 study enrolled 35 patients [23 with relapsed/refractory AML, 2 with other myeloid malignancies (CML-blast crisis, myelodysplasia with excess blasts), 3 with Hodgkin's Disease, 3 with non-Hodgkin's lymphoma and 4 with solid tumors]. The majority of patients had relapsed/refractory AML. Our clinical results include one AML patient with stable disease for >5 months, who received 8 TPA infusions. In a second AML patient, a pronounced (5-fold) decline in the number of circulating blasts was seen following TPA administration. This decline in leukemic blasts persisted for 4 weeks; the patient eventually died from a fungal infection.

[2] = system: ERK phosphorylation; experiment: Ex vivo ERK phosphorylation in clinical AML samples (Western analysis); type: cell-based, human
[3] = 5 patients, 0.125 mg/m^2, cited from earlier work
[4] = system: primary AML cells; experiment: Ex vivo cytotoxicity on primary AML cells (cell viability and apoptosis assays)
[5] = AML patients, 48 h treatment with induction chemotherapy
Source text: Clinical trial. […] The study was an open-label trial. […] Inclusion criteria included non-pregnant patients with an Eastern Cooperative Oncology Group performance status of 0 to 3, a bilirubin level more than twice the upper limits of normal, aspartate aminotransferase/alanine aminotransferase level more than thrice the upper limits of normal, and creatinine levels more than 1.5 times the upper limits of normal. Patients with current or recent gastrointestinal bleeding were excluded. […] Dexamethasone was administered at a dose of 10 mg p.o. every 6 h beginning at hour 0 and continuing until hour 48. […] Induction chemotherapy consisted of 3 days of idarubicin in combination with a 7-day continuous infusion of cytarabine. Some patients over the age of 60 received a reduced dose of idarubicin and the addition of etoposide (32).

[6] = system: primary AML cells

Row | SMILES | DLT's reported ([1]; CINJ TPA study) | Patients with grade III non-hematologic dose limiting toxicities (DLT) ([1]; last cohort, 0.188 mg/m^2 d1-5, 8-12) | Maximum tolerated TPA dose as a single agent ([1]; on d1-5 and 8-12) [mg/m^2/d] | Duration of stable disease ([1]; one AML patient, 8 TPA infusions) [months] | Clinical response of chest wall mass ([1]; patient with relapsed and refractory Hodgkin's disease) | Persistence of decline in leukemic blasts ([1]; second AML patient) [weeks] | Decline in the number of circulating blasts ([1]; second AML patient, following TPA administration) [fold] | ERK phosphorylation ([2]; all primary cultures analyzed by Western analysis, by 1 hour in culture) | TPA concentration (as low as) giving detectable increases in ERK phosphorylation ([2]; ex vivo exposure of clinical AML samples) [nM] | TPA level in blood, average ([3]; immediately post-infusion) | TPA level in blood, average ([3]; one hour post infusion) | Cytotoxic effects by TPA concentration ([4]; clinical AML samples ex vivo, 32 nM vs 3.2 nM, unpublished observations) | Cytotoxic effects, cell viability and apoptosis assays ([4]; small panel of clinical AML samples, subset of AML cases) | Unusual untoward effects attributable to the agent [5] | Effect on TPA cytotoxicity [6]
1 | CCCCCCCCCCCCCC(=O)O[C@@H]1[C@@H](C)[C@@]2(O)[C@@H](C=C(CO)C[C@]3(O)C(=O)C(C)=C[C@@H]23)[C@@H]2C(C)(C)[C@]12OC(C)=O [TPA, 12-O-tetradecanoylphorbol-13-acetate] | grade 3 dyspnea, grade 3 hypoxia and a grade 3 episode of hypotension | 2 out of 3 | 0.125 | > 5 | partial remission | 4 | 5 | strongly induced | 0.032 | 1.75 ng/ml blood and 2.8 nM | 0.93 ng/ml blood and 1.5 nM | 32 nM is more cytotoxic than 3.2 nM | direct cytotoxic effects |  | 
2 | C[C@@H]1C[C@H]2[C@@H]3CCC4=CC(=O)C=C[C@]4(C)[C@@]3(F)[C@@H](O)C[C@]2(C)[C@@]1(O)C(=O)CO [dexamethasone] |  |  |  |  |  |  |  |  |  |  |  |  |  | did not detect any unusual untoward effects; also recorded: did not, detect any unusual untoward elects | enhance TPA cytotoxicity
